The text below walks through data of patent publication EP1911451A1, “Protein-kinase CK2 inhibitors and their therapeutic applications” (INSERM (Institut National de la Santé et de la Recherche …, priority 2006, dated 2008).

Each structure is given as a SMILES string. Like-named read-outs stand apart in the source and are kept apart here.

Data set [1] deals with T1, CK2α (Homo sapiens, UniProt P68400). Briefly: in vitro CK2 kinase assay (inhibition of catalytic activity). In kind it is biochemical. On the procedure: (§1) Lineweaver-Burk inhibition plots of CK2α in the presence of different concentrations of Quinobene (0; 0.1; 0.2; 0.4; 0.8 µM). • (A) variable concentrations of ATP with Peptide] = 500 µM. (B) variable concentrations of Peptide with [ATP] = 200 µM. […] Lineweaver-Burk inhibition plots of CK2α in the presence of different concentrations of CCB8 (0; 1.1; 2.2 µM for ATP competition assay; 0; 1.1 µM for peptide competition assay). (A) variable concentrations of ATP with [Peptide] = 166 µM. (B) variable concentrations of Peptide with [ATP] = 25 µM. […] A549 cells were treated for 48 hours with increasing concentrations of CCB8 (σ) or Naphtobene (ν). Cell viability was evaluated with the Cell Titer Glo kit (Promega).
4,4'-bis(8-hydroxy-5-sulfo-7-quinolineazo)stilbene-2,2'-disulfonic acid (Quinobene) or 4,4'-[(1-hydroxy-4-sulfo-2-naphtyl)azo] 2,2'-stilbenedisulfonic acid (Naphtobene) were obtained from the National Cancer Institute and screened for CK2 inhibitors using an in vitro CK2 kinase assay (Filhol et al., 1991).
CCB8 was tested in the in vitro CK2 assay.

In data set [2] the test system is A549 cells. Put plainly: Cancer cell viability (Cell Titer Glo kit). In kind it is cell-based. As to conditions: increasing concentrations, 48 hours. As to the method: as §1
A549 cells were treated with increasing concentrations of TBB 4,5,6,7-TetraBromoBenzotriazole (Calbiochem®) or Quinobene for 48 hours and the cell viability was monitored.
A general note: Cellular ATP, detected with luciferase, serves as a proxy for viable cell number.

Data set [3] concerns non-small cell lung cancer cells (A549). Put plainly: Confocal microscopic analysis of cell uptake. Conditions: 100 µM, 48 hours, confocal microscopy. In kind it is cell-based.
Data set [4] deals with T1, CK2α. Put plainly: Lineweaver-Burk inhibition plots (ATP and peptide competition). Format: biochemical. Conditions: for mode of inhibition: with respect to ATP or the phosphoacceptor peptide. As to the method: as §1
Setting [5] is: inhibition of CK2 catalytic activity, dose-dependent (Figure 2), read-out: half-maximal effective concentration.
The mark [6] stands for this setting: inhibition of the catalytic activity of recombinant CK2α, read-out: IC50.

T1 sequence (P68400 whole entry): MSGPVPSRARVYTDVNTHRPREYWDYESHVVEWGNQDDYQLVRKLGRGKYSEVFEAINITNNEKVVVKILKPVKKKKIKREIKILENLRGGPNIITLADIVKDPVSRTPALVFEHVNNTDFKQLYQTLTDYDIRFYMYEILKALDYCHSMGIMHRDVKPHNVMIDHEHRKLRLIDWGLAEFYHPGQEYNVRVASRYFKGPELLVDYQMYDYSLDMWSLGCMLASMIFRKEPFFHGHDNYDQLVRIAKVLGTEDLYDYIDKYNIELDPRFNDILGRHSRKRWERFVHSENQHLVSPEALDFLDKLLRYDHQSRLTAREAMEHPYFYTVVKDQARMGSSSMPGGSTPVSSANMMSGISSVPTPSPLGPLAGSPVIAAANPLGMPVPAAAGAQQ

Take `O=S(=O)(O)c1cc(/N=N/c2cc(S(=O)(=O)O)c3ccccc3c2O)ccc1/C=C/c1ccc(/N=N/c2cc(S(=O)(=O)O)c3ccccc3c2O)cc1S(=O)(=O)O` [Naphtobene, 4,4'-[(1-hydroxy-4-sulfo-2-naphtyl)azo] 2,2'-stilbenedisulfonic acid]: the IC50 in data set [1] (setting [5]) and in data set [1] (setting [6]) was 300 nM each time. Also, the “cell viability / proapoptotic efficacy” value in data set [2] was “potency correlates with its proapoptotic efficacy”. Moreover, the cell permeability result in data set [3] is “cell permeable”.
`O=S(=O)(O)c1cc(/N=N/c2cc(S(=O)(=O)O)c3cccnc3c2O)ccc1/C=C/c1ccc(/N=N/c2cc(S(=O)(=O)O)c3cccnc3c2O)cc1S(=O)(=O)O` [Quinobene, 4,4'-bis(8-hydroxy-5-sulfo-7-quinolineazo)stilbene-2,2'-disulfonic acid]: the IC50 in data set [1] (setting [5]) and in data set [1] (setting [6]) was 130 nM throughout. Also, the “cell viability / proapoptotic efficacy” value in data set [2] is “potency correlates with its proapoptotic efficacy”. Also, the mode of inhibition entry in data set [4] was “non-competitive inhibitor”.
Take `Nc1ccc(C(=O)O)cc1N=Nc1ccc(C=Cc2ccc(N=Nc3cc(C(=O)O)ccc3N)cc2S(=O)(=O)O)c(S(=O)(=O)O)c1` [CCB8]: the IC50 in data set [1] (inhibition of the catalytic activity of recombinant CK2α) is 600 nM. For the same compound, the “cell viability / proapoptotic efficacy” value in data set [2] is listed as “potency correlates with its proapoptotic efficacy”. Further, the Ki in data set [4] (deduced from Lineweaver-Burk graph (Figure 5), read-out: Ki constant) was 85 nM. In addition, in data set [4], the mode of inhibition entry is on record as “non-competitive inhibitor”.

By Ki is commonly meant the equilibrium dissociation constant of an inhibitor or competing ligand from its target.
